Source: patent US20230270713A1, “Administration of Resiniferatoxin For Treatment of Bladder Pain or Bladder Cancer” (Sorrento Therapeutics, Inc., priority 2020, published 2023)
Values joined by “and” are separate entries in the source; they are usually repeats but may differ in a detail not shown here. Identical values can stand only once.

Key:
[1] = Local tolerance and clinical observations after intravesical RTX in dogs; type: in vivo, dog; details: single 25 or 250 mcg intravesical
Experimental: Local tolerance and the pharmacokinetic (PK), and toxicokinetic (TK) profile of RTX in dogs was determined after a single instillation of RTX into the bladder of dogs (n=6). The RTX formulations were prepared using aseptic techniques in a biological safety cabinet (BSC) by mixing the appropriate amount of diluent with the appropriate amount of RTX. Dosing formulation concentrations used were 1 and 10 mcg/mL.
RTX was administered via intravesical instillation into the urinary bladder. The animals were given a single dose of 25 or 250 mcg/dose in a total volume of 25 mL on Day 1 over a period of 1 hour (±5 minutes). RTX and diluent were administered to the dogs under general anesthesia via a Foley catheter placed into the bladder for 1 hour (±5 minutes).
Observations for morbidity, mortality, injury, and the availability of food and water were conducted twice daily for all animals. Observations for clinical signs for all animals were conducted on Day 2. The observations included evaluation of the skin, fur, eyes, ears, nose, oral cavity, thorax, abdomen, external genitalia, limbs and feet, respiratory and circulatory effects, autonomic effects such as salivation, and nervous system effects including tremors, convulsions, reactivity to handling, and unusual behavior.

[2] = test system: cats with FIC (Feline Idiopathic Cystitis); assay: VSOM and Cystitis Events Survey combined effect in FIC cats; type: in vivo, cat; details: for Cystitis ≥2 and VSOM ≥2 Point success, cats n/N / Cystitis ≥3 and VSOM ≥2 Point success, cats n/N / Cystitis ≥3 and VSOM ≥2 Point success, percent of cats / Cystitis ≥2 and VSOM ≥2 Point success, percent of cats: Day 28
Description: Treatment success was defined as “a reduction of at least 2 in total VSOM score at Day 3 and 28 compared to VSOM score at day 0.” A decrease of less than 2, no change, or an increase in total score was defined as treatment failure. Cats presenting an increase in any individual VSOM score were considered a treatment failure regardless of total VSOM score.
The use of the Cystitis Events Survey was exploratory, and no strict definition of success was applied to the results. However, and based on published literature, the results were described as follows: (1) percentage of cats per cohort with an average improvement of 2 or more points and no increase in any individual score on Day 28; and (2) percentage of cats per cohort with an average improvement of 3 or more points and no increase in any individual score on Day 28.
When the results were combined for VSOM improvement of ≥2 and cystitis improvement of ≥3, the effectiveness decreased from 100% to 80% (see Cohort 1). […] Overall, the decrease was approximately 20% in Cohorts 1-2.

[3] = Plasma concentration of RTX (HPLC) after intravesical instillation in healthy cats; type: in vivo, cat
Experimental: To examine the effect of intravesical instillation of RTX on the bladder, 6 healthy cats, between the 2-5 years of age, were treated with either 5 (low dose), 25 (mid dose) or 50 mcg (high dose) of RTX (volume was 25 ml; concentrations were 0.2, 1, and 2 mcg/ml). These doses are considered equivalent to administration of 20, 100, or 200 mcg in a human with a volume of 100 ml. A seventh cat received saline only and served as the control. The bladders of the anesthetized cats were emptied and then flushed with sterile saline via a foley urinary catheter. Once the saline was removed, the treatment with RTX (test cats) or saline alone (control cat) was administered over 60 seconds and left in the bladder for 20 minutes.
The bladder of each cat was emptied and blood samples for pharmacokinetic analysis were collected pre-RTX treatment and at 0.5, 1, and 4 hours post RTX treatment.

[4] = Adverse effects in dogs with bladder TCC (Example F); type: in vivo, dog; details: 16 dogs with bladder TCC
Experimental: RTX was administered as a one-time treatment into the bladder on Day 0 with the option of repeating RTX at a future study day. A Foley urinary catheter was placed using a sterile standard technique. An abdominal ultrasound was concurrently performed to ensure that the tip of the catheter was in the bladder lumen. Urine was removed using a catheter tipped syringe.
RTX was diluted in 0.9% NaCl and then infused into the bladder. The catheter was then flushed with 5-6 mL of 0.9% NaCl to ensure the entire IVP volume was administered. The Foley catheter was capped and remained in place for a period of 30 minutes post-infusion. The bladder was then emptied prior to removal of the Foley catheter. The timing of recovery was managed on an individual basis, but it was recommended to initiate recovery approximately 10 minutes after RTX infusion.

[5] = Adverse events in dogs with bladder cancer (Example D); type: in vivo, dog
Experimental: Dogs with bladder cancer were treated with RTX as follows. Under general anesthesia, RTX was infused directly into the bladder using a foley catheter. RTX remained in the bladder for 30 minutes before removal.

C=C(C)[C@]12C[C@@H](C)[C@@]34O[C@](Cc5ccccc5)(O[C@@H]1[C@@H]3C=C(COC(=O)Cc1ccc(O)c(OC)c1)C[C@]1(O)C(=O)C(C)=C[C@@H]41)O2 [RTX, resiniferatoxin]
Tolerability, detailed clinical observations, body weight [1]: well tolerated and did not result in any detailed clinical observations or changes in body weight
Cystitis ≥2 and VSOM ≥2 Point success, cats n/N ([2]; 6.25 μg/25 mL (Cohort 2)): 3/6
Cystitis ≥3 and VSOM ≥2 Point success, cats n/N ([2]; 6.25 μg/25 mL (Cohort 2)): 2/6
Cystitis ≥3 and VSOM ≥2 Point success, percent of cats ([2]; 6.25 μg/25 mL (Cohort 2)): (33.3%)
Cystitis ≥2 and VSOM ≥2 Point success, cats n/N ([2]; 12.5 μg/10 mL (Cohort 4)): 4/6
Cystitis ≥2 and VSOM ≥2 Point success, percent of cats ([2]; 12.5 μg/10 mL (Cohort 4)): (66.7%)
Cystitis ≥3 and VSOM ≥2 Point success, cats n/N ([2]; 12.5 μg/10 mL (Cohort 4)): 4/6
Cystitis ≥3 and VSOM ≥2 Point success, percent of cats ([2]; 12.5 μg/10 mL (Cohort 4)): (66.7%)
Cystitis ≥2 and VSOM ≥2 Point success, cats n/N ([2]; 12.5 μg/25 mL (Cohort 3)): 6/6
Cystitis ≥2 and VSOM ≥2 Point success, percent of cats ([2]; 12.5 μg/25 mL (Cohort 3)): (100%)
Cystitis ≥3 and VSOM ≥2 Point success, cats n/N ([2]; 12.5 μg/25 mL (Cohort 3)): 6/6
Cystitis ≥3 and VSOM ≥2 Point success, percent of cats ([2]; 12.5 μg/25 mL (Cohort 3)): (100%)
Cystitis ≥2 and VSOM ≥2 Point success, cats n/N ([2]; 25 μg/25 mL (Cohort 1)): 4/5
Cystitis ≥2 and VSOM ≥2 Point success, percent of cats ([2]; 25 μg/25 mL (Cohort 1)): (80%)
Cystitis ≥3 and VSOM ≥2 Point success, cats n/N ([2]; 25 μg/25 mL (Cohort 1)): 4/5
decrease in effectiveness when VSOM and cystitis results are combined ([2]; Cohorts 1-2, overall): approximately 20%
Plasma concentration of RTX ([3]; 5 mcg total intravesical, 0 h, individual cats): BQL (BQL = Below the Quantifiable Limit (<50.0 pg/mL).)
Plasma concentration of RTX ([3]; 5 mcg total intravesical, 0.5 h, individual cats): BQL (BQL = Below the Quantifiable Limit (<50.0 pg/mL).)
Plasma concentration of RTX ([3]; 5 mcg total intravesical, 1 h, individual cats): BQL (BQL = Below the Quantifiable Limit (<50.0 pg/mL).)
Plasma concentration of RTX ([3]; 5 mcg total intravesical, 4 h, individual cats): BQL (BQL = Below the Quantifiable Limit (<50.0 pg/mL).)
Plasma concentration of RTX ([3]; 25 mcg total intravesical, 0 h, individual cats): BQL (BQL = Below the Quantifiable Limit (<50.0 pg/mL).)
Plasma concentration of RTX ([3]; 25 mcg total intravesical, 0.5 h, individual cats): 55.5 pg/ml and 10.1* pg/ml
Plasma concentration of RTX ([3]; 25 mcg total intravesical, 1 h, individual cats): BQL (BQL = Below the Quantifiable Limit (<50.0 pg/mL).)
Plasma concentration of RTX ([3]; 25 mcg total intravesical, 4 h, individual cats): BQL (BQL = Below the Quantifiable Limit (<50.0 pg/mL).)
Plasma concentration of RTX ([3]; 50 mcg total intravesical, 0 h, individual cats): BQL (BQL = Below the Quantifiable Limit (<50.0 pg/mL).)
Plasma concentration of RTX ([3]; 50 mcg total intravesical, 0.5 h, individual cats): BQL (BQL = Below the Quantifiable Limit (<50.0 pg/mL).)
Plasma concentration of RTX ([3]; 50 mcg total intravesical, 1 h, individual cats): BQL (BQL = Below the Quantifiable Limit (<50.0 pg/mL).)
Plasma concentration of RTX ([3]; 50 mcg total intravesical, 4 h, individual cats): BQL (BQL = Below the Quantifiable Limit (<50.0 pg/mL).)
Plasma levels of RTX ([3]; all 3 groups, all time points (0, 0.5, 1, 4 h) except 0.5 h (25, 50 mcg) and 1 h (25 mcg)): below 50 pg/mL
RTX in plasma ([3]; all groups, 4 hours): below quantifiable levels
concentration at 1 h ([3]; cat, plasma, other: intravesical instillation, 25 mcg, 25 mcg total intravesical, 1 h, individual cats): 0.0135 ng/mL
concentration at 0.5 h ([3]; cat, plasma, other: intravesical instillation, 50 mcg, 50 mcg total intravesical, 0.5 h, individual cats): 8.77 pg/mL
Tolerability [4]: very well tolerated
dose dependence of the most commonly reported AE (emesis, diarrhea, anorexia) [4]: did not appear to be dose dependent
AE anorexia, number of dogs ([4]; RTX 25-100 μg intravesical): 4 dogs
AE anorexia, percent of dogs ([4]; RTX 25-100 μg intravesical): 25.0%
AE diarrhea, number of dogs ([4]; RTX 25-100 μg intravesical): 5 dogs
AE diarrhea, percent of dogs ([4]; RTX 25-100 μg intravesical): 31.3%
AE emesis, number of dogs ([4]; RTX 25-100 μg intravesical): 6 dogs
AE emesis, percent of dogs ([4]; RTX 25-100 μg intravesical): 37.5%
AE lethargy, number of dogs ([4]; RTX 25-100 μg intravesical): 4 dogs
AE lethargy, percent of dogs ([4]; RTX 25-100 μg intravesical): 25.0%
dogs with an SAE ([4]; SAE considered most likely related to tumor progression): 1 dog
severity of the most common AEs ([4]; except one anorexia event considered severe): mild to moderate (Grade 1 or 2)
Adverse events considered possibly attributable to RTX ([5]; Case 03-01, 25 ug (2.8 ug/kg), Day 0): Bladder spasm, urinating around catheter (Grade 1)
Adverse events considered possibly attributable to RTX ([5]; Case 03-02, 50 ug (2.6 ug/kg)): none
Adverse events considered possibly attributable to RTX ([5]; Case 41-02, 50 ug (1.3 ug/kg) dosed twice, Day 1): crying out after urination (Grade 1)
Adverse events considered possibly attributable to RTX ([5]; Case 47-02, 50 ug (2.0 ug/kg), Day 0): diarrhea, vomiting, hyperoxia (Grade 1)
dose-limiting toxicity ([5]; dogs with bladder cancer): No dose-limiting toxicity was observed
adverse events ([5]; dogs with bladder cancer, 25-100 ug intravesical): minimal, mild, and transient
grade of adverse events ([5]; dogs with bladder cancer, all adverse events): grade 1
Tolerability ([5]; dogs with bladder cancer, all tested doses incl. maximum 50 ug or 2.8 ug/kg dosed twice 28 days apart): tolerated at all tested doses
